Patent US12473289B2, “Heterocyclic compounds as delta-5 desaturase inhibitors and methods of use” (Amgen Inc., priority 2019, dated 2025)

The molecules below were run against Delta-5-Desaturase (D5D) (Homo sapiens (Human), UniProt O60427) (assay: In vitro measurement of Delta-5-Desaturase inhibitory activity using DGLA-CoA and Arachidonyl-CoA mass spectrometric assays). Conditions: membrane preparations of D5D-overexpressing HEK293 6E cells; averaged over at least two independent runs.
Sequence of Delta-5-Desaturase (D5D) (O60427 whole entry, species assumed): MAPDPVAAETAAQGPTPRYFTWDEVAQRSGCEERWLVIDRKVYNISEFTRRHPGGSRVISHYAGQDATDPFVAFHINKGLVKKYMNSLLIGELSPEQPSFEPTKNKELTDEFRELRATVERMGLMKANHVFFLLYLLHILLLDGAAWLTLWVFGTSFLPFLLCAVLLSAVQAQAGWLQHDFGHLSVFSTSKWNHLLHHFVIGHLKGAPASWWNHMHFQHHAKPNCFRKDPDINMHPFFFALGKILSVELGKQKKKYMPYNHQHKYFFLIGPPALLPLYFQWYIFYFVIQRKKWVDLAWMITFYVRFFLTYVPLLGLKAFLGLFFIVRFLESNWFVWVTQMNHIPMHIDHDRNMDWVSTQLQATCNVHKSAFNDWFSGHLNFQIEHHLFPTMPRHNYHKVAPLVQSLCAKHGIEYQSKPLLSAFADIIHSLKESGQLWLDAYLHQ
Type: biochemical
Description: In vitro Measurement of Delta-5-Desaturase Inhibitory Activity using DGLA-CoA and Arachidonyl-CoA Mass Spectrometric Assays
Membrane preparations of D5D-overexpressing HEK293 6E cells were prepared in which the total protein concentration was 5.6 mg/mL. Stock D5D membrane preparations were diluted in D5D assay buffer (25 mM 2-amino-2-(hydroxymethyl)-1,3-propanediol, pH 7.5 containing 10 mM MgCl2, 1 mM octyl glucoside (SigmaAldrich 0-8001), 1 mM tris(2-carboxyethyl)phosphine hydrochloride (SigmaAldrich 646547)) to a final D5D membrane concentration of 10 μg/mL in an assay plate containing serially diluted test compounds. To 15 μL of this D5D preparation was added 15 μL of a substrate solution (0.25 mM NADH (nicotinamide adenine dinucleotide, Roche Diag. 10107735001), 0.25 mM adenosine triphosphate (SigmaAldrich A-3377), 0.05 mM coenzyme A hydrate (SigmaAldrich C-4282), and 0.01 mM DGLA (dihomo-g-linolenic acid, Sigma E-4504) in the same D5D assay buffer. After one-hour incubation at ambient temperature acetonitrile (30 μL) was added to quench the reaction and plates were centrifuged for 10 min @3,000 rpm. Mass spectrometric analysis involved a Rapidfire 360 SPE system coupled to an ABSciex API4000 Triple Quadrupole mass spectrometer using a C18 SPE cartridge (G9203-80105) with ionization in negative mode (solvent A=100% water; solvent B=100% acetonitrile, each solvent containing 5 mM ammonium acetate). DGLA-CoA and Arachidonyl-CoA were detected by multiple reaction monitoring (MRM) of the doubly charged parent ions at m/z 526.6 and 525.6, respectively.
Sx is value from unknown sample, So is value from DMSO alone and Sc is value from no enzyme well. For CRC analysis, the % of inhibitions were analyzed with 4 Parameter Logistic Model or Sigmoidal Dose-Response Model using XLfit (IDBS, Guilford, UK). The potency of the test item was expressed as IC50 nM, corresponding to the test item concentration able to inhibit the 50% of the enzyme maximal response. IC50 values were averaged values determined by at least two independent runs.
This assay may be used to test any of the compounds described herein to assess and characterize a compound's ability to inhibit D5D.
`[2H]C([2H])([2H])Oc1ccn2c(=O)c(-c3ccc(OCCF)cc3)c(C(F)(F)F)nc2c1` [Example 1-51, 3-(4-(2-fluoroethoxy)phenyl)-8-(methyloxy-d3)-2-(trifluoromethyl)-4H-pyrido[1,2-a]pyrimidin-4-one] showed an IC50 of 26.6 nM. `[2H]C([2H])([2H])Oc1ccn2c(=O)c(-c3ccc(OCC(F)F)cc3)c(C(F)(F)F)nc2c1` [Example 1-52, 3-(4-(2,2-difluoroethoxy)phenyl)-8-(methyloxy-d3)-2-(trifluoromethyl)-4H-pyrido[1,2-a]pyrimidin-4-one] was tested, and the IC50 was 5.6 nM. For `COc1ccn2c(=O)c(-c3ccc(OCC(F)(F)F)cc3F)c(C(F)(F)F)nc2n1` [Example 1-53, 3-(2-fluoro-4-(2,2,2-trifluoroethoxy)phenyl)-8-methoxy-2-(trifluoromethyl)-4H-pyrimido[1,2-a]pyrimidin-4-one], the IC50 was 8.5 nM. With `COc1ccn2c(=O)c(-c3ccc(OC(F)F)cc3)c(C(F)(F)F)nc2c1` [Example 1-54, 3-(4-(difluoromethoxy)phenyl)-8-methoxy-2-(trifluoromethyl)-4H-pyrido[1,2-a]pyrimidin-4-one] the IC50 was 6.6 nM. With `[2H]C([2H])([2H])Oc1ccn2c(=O)c(-c3ccc(OCCF)cc3)c(C(F)(F)F)nc2n1` [Example 1-55, 3-(4-(2-fluoroethoxy)phenyl)-8-(methyloxy-d3)-2-(trifluoromethyl)-4H-pyrimido[1,2-a]pyrimidin-4-one] the IC50 was 112 nM. For `O=c1ccn2c(=O)c(-c3ccc(OCCF)cc3)c(C(F)(F)F)nc2[nH]1` [Example 1-56, 7-(4-(2-fluoroethoxy)phenyl)-8-(trifluoromethyl)-2H-pyrimido[1,2-a]pyrimidine-2,6(1H)-dione], the IC50 was 9280 nM. `COc1ccn2c(=O)c(-c3ccc(OCCF)cc3)c(C(F)(F)F)nc2n1` [Example 1-57, 3-(4-(2-fluoroethoxy)phenyl)-8-methoxy-2-(trifluoromethyl)-4H-pyrimido[1,2-a]pyrimidin-4-one] showed an IC50 of 226 nM. For `CCc1nc2cc(OC)ccn2c(=O)c1-c1ccc(OCC(F)(F)F)nc1` [Example 1-60, 2-ethyl-8-methoxy-3-(6-(2,2,2-trifluoroethoxy)-3-pyridinyl)-4H-pyrido[1,2-a]pyrimidin-4-one], the IC50 was 37.8 nM. With `[2H]C([2H])([2H])Oc1ccn2c(=O)c(-c3cnn(CCC(F)(F)F)c3)c(C(F)(F)F)nc2c1` [Example 1-61, 8-(methyloxy-d3)-2-(trifluoromethyl)-3-(1-(3,3,3-trifluoropropyl)-1H-pyrazol-4-yl)-4H-pyrido[1,2-a]pyrimidin-4-one] the IC50 was 11.4 nM. Molecule `[2H]C([2H])([2H])Oc1ccn2c(=O)c(-c3cnn(CCCC(F)(F)F)c3)c(C(F)(F)F)nc2c1` [Example 1-63, 8-(methyloxy-d3)-3-(1-(4,4,4-trifluorobutyl)-1H-pyrazol-4-yl)-2-(trifluoromethyl)-4H-pyrido[1,2-a]pyrimidin-4-one] has an IC50 of 28.1 nM. For `[2H]C([2H])([2H])Oc1ccn2c(=O)c(-c3ccc(OCC(F)(F)F)nc3)c(C(F)(F)F)nc2c1` [Example 1-64, 8-(methyloxy-d3)-3-(6-(2,2,2-trifluoroethoxy)-3-pyridinyl)-2-(trifluoromethyl)-4H-pyrido[1,2-a]pyrimidin-4-one], the IC50 was 21.5 nM. For `[2H]C([2H])([2H])Oc1ccn2c(=O)c(-c3ccc(OCC4CC4)cc3)c(C(F)(F)F)nc2c1` [Example 1-65, 3-(4-(cyclopropylmethoxy)phenyl)-8-(methyloxy-d3)-2-(trifluoromethyl)-4H-pyrido[1,2-a]pyrimidin-4-one], the IC50 was 3.2 nM. Molecule `O=c1c(-c2ccc(OCC(F)(F)F)cc2)c(C(F)(F)F)nc2cc(OC(F)F)ccn12` [Example 1-66, 8-(difluoromethoxy)-3-(4-(2,2,2-trifluoroethoxy)phenyl)-2-(trifluoromethyl)-4H-pyrido[1,2-a]pyrimidin-4-one] has an IC50 of 79.1 nM. In the case of `COc1ccn2c(=O)c(-c3ccc(OCC(F)(F)F)cc3)c(C)nc2c1` [Example 1-67, 8-methoxy-2-methyl-3-(4-(2,2,2-trifluoroethoxy)phenyl)-4H-pyrido[1,2-a]pyrimidin-4-one], the IC50 is reported as 34.2 nM. `COc1ccn2c(=O)c(-c3cnn(-c4ccc(C(F)(F)F)cc4)c3)c(C(F)(F)F)nc2c1` [Example 1-71, 8-methoxy-2-(trifluoromethyl)-3-(1-(4-(trifluoromethyl)phenyl)-1H-pyrazol-4-yl)-4H-pyrido[1,2-a]pyrimidin-4-one] showed an IC50 of 4880 nM. With `COc1ccn2c(=O)c(-c3cnn(CC(F)(F)F)c3)c(C(F)(F)F)nc2c1` [Example 1-74, 8-methoxy-3-(1-(2,2,2-trifluoroethyl)-1H-pyrazol-4-yl)-2-(trifluoromethyl)-4H-pyrido[1,2-a]pyrimidin-4-one] the IC50 was 27.6 nM. In the case of `CCCn1cc(-c2c(C(F)(F)F)nc3cc(OC)ccn3c2=O)cn1` [Example 1-76, 8-methoxy-3-(1-propyl-1H-pyrazol-4-yl)-2-(trifluoromethyl)-4H-pyrido[1,2-a]pyrimidin-4-one], the IC50 is reported as 17.6 nM. In the case of `Cc1ccn2c(=O)c(-c3ccc(OCC(F)(F)F)cc3)c(C(F)(F)F)nc2c1` [Example 1-78, 8-methyl-3-(4-(2,2,2-trifluoroethoxy)phenyl)-2-(trifluoromethyl)-4H-pyrido[1,2-a]pyrimidin-4-one], the IC50 is reported as 2.7 nM. With `CCCc1ccc(-c2c(C(F)(F)F)nc3cc(OC)ccn3c2=O)cc1` [Example 1-79, 8-methoxy-3-(4-propylphenyl)-2-(trifluoromethyl)-4H-pyrido[1,2-a]pyrimidin-4-one] the IC50 was 3.6 nM. `CC(=O)Nc1ccn2c(=O)c(-c3cnn(CC(F)(F)C(F)(F)F)c3)c(C(F)(F)F)nc2c1` [Example 1-82, N-(4-oxo-3-(1-(2,2,3,3,3-pentafluoropropyl)-1H-pyrazol-4-yl)-2-(trifluoromethyl)-4H-pyrido[1,2-a]pyrimidin-8-yl)acetamide] gave an IC50 of 56 nM. `COc1ccn2c(=O)c(-c3ccc(OC[C@H]4CC4(F)F)cc3)c(C(F)(F)F)nc2c1` [Example 1-83, 3-(4-(((1R)-2,2-Difluorocyclopropyl)methoxy)phenyl)-8-methoxy-2-(trifluoromethyl)-4H-pyrido[1,2-a]pyrimidin-4-one] showed an IC50 of 5.7 nM. Work on `N#Cc1ccn2c(=O)c(-c3cnn(CC(F)(F)C(F)(F)F)c3)c(C(F)F)nc2c1` [Example 1-85, 2-(difluoromethyl)-4-oxo-3-(1-(2,2,3,3,3-pentafluoropropyl)-1H-pyrazol-4-yl)-4H-pyrido[1,2-a]pyrimidine-8-carbonitrile] yielded an IC50 of 148 nM. `N#Cc1ccn2c(=O)c(-c3cnn(CC(F)(F)C(F)(F)F)c3)c(CF)nc2c1` [Example 1-86, 2-(fluoromethyl)-4-oxo-3-(1-(2,2,3,3,3-pentafluoropropyl)-1H-pyrazol-4-yl)-4H-pyrido[1,2-a]pyrimidine-8-carbonitrile] showed an IC50 of 134 nM. Molecule `O=c1c(-c2cnn(CC(F)(F)C(F)(F)F)c2)c(C(F)(F)F)nc2cc(C3CC3)ccn12` [Example 1-87, 8-cyclopropyl-3-(1-(2,2,3,3,3-pentafluoropropyl)-1H-pyrazol-4-yl)-2-(trifluoromethyl)-4H-pyrido[1,2-a]pyrimidin-4-one] has an IC50 of 85.9 nM. For `O=c1c(-c2cnn(CC(F)(F)C(F)(F)F)c2)c(C(F)(F)F)nc2cc(N3CCC3)ccn12` [Example 1-88, 8-(1-azetidinyl)-3-(1-(2,2,3,3,3-pentafluoropropyl)-1H-pyrazol-4-yl)-2-(trifluoromethyl)-4H-pyrido[1,2-a]pyrimidin-4-one], the IC50 was 2350 nM. `CCc1ccn2c(=O)c(-c3ccc(OCC(F)(F)F)cc3)c(C(F)(F)F)nc2c1` [Example 2-1, 8-Ethyl-3-(4-(2,2,2-trifluoroethoxy)phenyl)-2-(trifluoromethyl)-4H-pyrido[1,2-a]pyrimidin-4-one] was tested, and the IC50 was 22.6 nM. With `O=C(O)c1ccn2c(=O)c(-c3ccc(OCC(F)(F)F)cc3)c(C(F)(F)F)nc2c1` [Example 2-2, 4-oxo-3-(4-(2,2,2-trifluoroethoxy)phenyl)-2-(trifluoromethyl)-4H-pyrido[1,2-a]pyrimidine-8-carboxylic acid] the IC50 was 646 nM. `O=c1c(-c2ccc(OCC(F)(F)F)cc2)c(C(F)(F)F)nc2cc(F)ccn12` [Example 2-3, 8-fluoro-3-(4-(2,2,2-trifluoroethoxy)phenyl)-2-(trifluoromethyl)-4H-pyrido[1,2-a]pyrimidin-4-one] gave an IC50 of 88.4 nM. `COc1ccn2c(=O)c(-c3cnn(CCC(F)(F)F)c3)c(C(F)(F)F)nc2n1` [Example 2-4, 8-methoxy-2-(trifluoromethyl)-3-(1-(3,3,3-trifluoropropyl)-1H-pyrazol-4-yl)-4H-pyrimido[1,2-a]pyrimidin-4-one] showed an IC50 of 57.4 nM. In the case of `[2H]C([2H])([2H])c1ccn2c(=O)c(-c3ccc(OCC(F)(F)F)cc3)c(C(F)(F)F)nc2c1` [Example 2-5, 8-(methyl-d3)-3-(4-(2,2,2-trifluoroethoxy)phenyl)-2-(trifluoromethyl)-4H-pyrido[1,2-a]pyrimidin-4-one], the IC50 is reported as 3.9 nM.
